Columns and labels:
[1] = tested on: EAE mice; assay: Proliferation, migration and differentiation of neuronal progenitor cells in EAE mice (BrdU, DCX, NeuN); assay type: in vivo, mouse
Protocol: (xxxix) BrdU. 5-Bromo-2′-deoxyuridine (BrdU, Sigma), a thymidine analog incorporating into the DNA of dividing cells, was injected intraperitoneally (50 mg/kg), either concurrently with GA treatment (once each day), or immediately after completion of GA injections (twice each day).
(xli) Immunohistochemistry. […] Control slides were incubated with secondary antibody alone.
(xliii) Quantification. […] Quantification was performed in coronal sections, in the SVZ starting at the level of the medial septum and 640 μm backward, and in the hippocampal DG (in both blades for BrdU/DCX or in the upper blade for DCX) through its septotemporal axis. Quantification in the RMS was done on sagital sections starting at 1 mm from the median line of the brain and 640 μm laterally. The Results for each brain structure were averaged from 8 unilateral levels per mouse (80 μm apart, 3-4 mice in each treatment group) and are expressed as change fold from naive controls. Quantification of BrdU/NeuN double positive cells in the cortex was performed in areas of 0.15 mm^2, selected at random (10 sections counted/mouse, 3 mice in each treatment group).
(xliv) Statistical analysis. For BrdU and DCX analysis, the mean±SEM (averaged from 8 unilateral levels per mouse, 3-4 mice in each treatment group) was subjected to one-way analysis of variance (ANOVA), followed by Fishers' least significant difference (LSD) at comparison-wise error rate of 0.05, where appropriate. Since control values for BrdU incorporation were reduced as a function of time, results were expressed as change fold from naive controls injected concurrently with BrdU. The number of BrdU/NeuN double-positive cells in the cortex was averaged from 10 sections per mouse (3 mice in each treatment group) and expressed as cells per mm^3.

[2] = tested on: EAE mice
Protocol: GA treatment was applied by 5-8 consecutive daily subcutaneous injections (2 mg/mouse) in different stages of disease [i.e., (1) starting immediately after EAE induction (prevention treatment), (2) starting after appearance of disease manifestations at day 20 (suppression treatment), or (3) starting during the chronic phase 45 days after induction (delayed suppression).
(xl) Perfusion. Animals were deeply anesthetized with Nembutal and perfused transcardially with 2.5% paraformaldehyde. Brains were removed, postfixed in 1% paraformaldehyde and cryoprotected with 15% sucrose solution in PBS. Free-floating sections (16 μm thick) were cut coronally or sagitaly with a sliding microtome (Leica SM 2000r) through the entire brain and collected serially in PBS.
(xli) Immunohistochemistry. To detect BrdU-incorporated cells, sections were denatured in 2M HCl in PBS at 37° C. for 30 min and then neutralized with 0.1M borate buffer (pH 8.5) for 10 min at room temperature. To detect specific cell types, sections were pre-incubated in PBS solution containing 20% serum and 0.5% Triton-X-100 for 1 h, and then incubated overnight at room temperature with primary antibodies. The following primary antibodies were used: goat anti-doublecortin (DCX) C-18 (1:200, Santa Cruz Biotechnology, Santa Cruz, Calif.), mouse anti-NeuN (1:300, Chemicon, Temecula, Calif.), mouse anti-GFAP (1:100, Pharmingen, San Jose, Calif.), rabbit anti-phospho-histone (1:200, Upstate Biotechnology, Charlottesville, Va.), rat anti-BrdU (1:200, Harlan, Indianapolis, Ind.), rat anti-CD11b (1:50, Pharmingen) and chicken anti-BDNF (1:50, Promega, Madison, Wis.). […]
(xlii) Microscopy. Stained sections were examined and photographed by a confocal microscope (Axiovert 100M; Zeiss, Oberkochen, Germany), or by a fluorescence microscope (E600; Nikon, Tokyo, Japan), equipped with Plan Fluor objectives connected to CCD camera (DMX1200F, Nikon). Digital images were collected and analyzed using Image Pro+software. […]

[3] = tested on: APP/PS1 Tg mice; assay: Hippocampal immunohistochemistry in APP/PS1 Tg mice (Aβ plaques, microglia, NeuN, BrdU, DCX); assay type: in vivo, mouse
Protocol: (xxii) Glatiramer acetate vaccination. Each mouse was subcutaneously injected five times with a total of 100 μg of glatiramer acetate (GA (TV-5010), MW 13.5-18.5 kDa, average 16 kDa, Teva Pharmaceutical Industries Ltd., Petach Tikva, Israel), emulsified in 200 μl PBS×1, from experimental day 0 until day 24, twice during the first week and once a week thereafter.
(xxiv) Administration of BrdU and tissue preparation. BrdU was dissolved by sonication in PBS and injected i.p. into each mouse (50 mg/kg body weight; 1.25 mg BrdU in 200 μl PBS×1). Starting from experimental day 22 after the first GA vaccination, BrdU was injected i.p. twice daily, every 12 h for 2.5 days, to label proliferating cells. Three weeks after the first BrdU injection the mice were deeply anesthetized and perfused transcardially, first with PBS and then with 4% paraformaldehyde. The whole brain was removed, postfixed overnight, and then equilibrated in phosphate-buffered 30% sucrose. Free-floating 30-μm sections were collected on a freezing microtome (Leica SM2000R) and stored at 4° C. prior to immunohistochemistry.
For immunohistochemistry, tissue sections were treated with a permeabilization/blocking solution containing 10% FCS, 2% bovine serum albumin, 1% glycine, and 0.05% Triton X-100 (Sigma-Aldrich, St. Louis). Tissue sections were stained overnight at 4° C. with specified combinations of the following primary antibodies: rat anti-BrdU (1:200; Oxford Biotechnology, Kidlington, Oxfordshire, UK), goat anti-DCX [doublecortin] (1:400; Santa Cruz Biotechnology), and mouse anti-NeuN [neuronal nuclear protein] (1:200; Chemicon, Temecula, Calif.). Secondary antibodies were FITC-conjugated donkey anti-goat, Cy-3-conjugated donkey anti-mouse, and Cy-3- or Cy-5-conjugated donkey anti-rat (1:200; Jackson ImmunoResearch, West Grove, Pa.). For labeling of microglia we used either CD11b (MAC1; 1:50; BD-Pharmingen) or FITC-conjugated Bandeiraea simplicifolia isolectin B4 (IB4, 1:50; Sigma-Aldrich, Rehovot). To detect expression of cell-surface MHC-II proteins we used anti-MHC-II Abs (rat, clone IBL-5/22; 1:50; Chemicon, Temecula, Calif.). To detect expression of human Aβ we used anti-Aβ (human amino-acid residues 1-17) (mouse, clone 6E10, Chemicon, Temecula, Calif.). Expression of IGF-I was detected by goat anti-IGF-I Abs (1:20; R&D Systems). Expression of TNF-α was detected by goat anti-TNF-α Abs (1:100; R&D Systems). T cells were detected with anti-CD3 polyclonal Abs (rabbit, 1:100; DakoCytomation, Calif.). Propidium iodide (1 μg/ml; Molecular Probes, Invitrogen, Carlsbad, Calif.) was used for nuclear staining.
For in-vivo experiments, the number of Aβ^+ plaques and CD11b^+/IB-4^+ microglia in the hippocampus were counted at 300-μm intervals from 6-8 coronal sections (30 μm) from each mouse. Neurogenesis in the DG was evaluated by counting of premature neurons (DCX^+), proliferating cells (BrdU^+), and newly formed mature neurons (BrdU^+/NeuN^+) in six coronal sections (30 μm) from each mouse. Specificity of BrdU^+/NeuN^+ co-expression was assayed using the confocal microscope (LSM 510) in optical sections at 1-μm intervals/. Cell counts, numbers of Aβ^+ plaques, plaque areas, and intensity of NeuN staining per unit area in the DG were evaluated automatically using Image-Pro Plus 4.5 software (Media Cybernetics).

[4] = tested on: EAE mice; assay: Clinical manifestations of MOG 35-55-induced EAE; assay type: in vivo; conditions: 5-8 daily s.c. injections 2 mg/mouse; prevention, suppression or delayed suppression
[5] = tested on: APP/PS1 Tg mice; assay: Morris water maze (MWM) in APP/PS1 double-transgenic AD mice; assay type: in vivo, mouse; conditions: GA (TV-5010) s.c. vaccination, tested five weeks after first injection
[6] = EAE+GA mice, one month after completion of GA treatment
[7] = GA vaccinated vs untreated Tg mice

**Q.** Which “migration of neuronal progenitors outside the RMS” value ([1]; EAE mice treated with GA) does the source give for glatiramer acetate [GA] here?
**A.** migration into a region corresponding to the lateral cortical stream (LCS)

**Q.** What about the “neuronal proliferation in the hippocampus (BrdU incorporation, DCX expression)” value ([1]; EAE+GA mice) of the same substance?
**A.** increased proliferation

**Q.** What about the “BDNF expression by migrating DCX+ cells” value ([1]; EAE+GA mice, nucleus accumbens and hippocampus) of the same substance?
**A.** manifested extensive expression of BDNF

**Q.** And the “BrdU+/NeuN+ cells as share of all NeuN+ cells in the cortex” value [1, 6]?
**A.** 1.3%

**Q.** What about the “BrdU+/NeuN+ double-labeled cells in the cortex” value [1, 6] of the same substance?
**A.** 128±46 /mm^3

**Q.** And the “progenitors migrating to lesions” value ([1]; EAE+GA vs EAE mice)?
**A.** much higher

**Q.** What about the “neuronal proliferation in the SVZ” value ([1]; EAE+GA vs untreated EAE mice and controls) of the same substance?
**A.** augmented neuronal proliferation in the SVZ

**Q.** What about the “BrdU or DCX expression in SVZ and DG” value ([1]; GA injection to naive mice (without EAE)) of the same substance?
**A.** did not result in significant elevation

**Q.** And the “BrdU expression in the RMS, increase over EAE mice” value ([1]; GA on days 20-25 (suppression))?
**A.** 2.2 fold

**Q.** And the “BrdU expression in the RMS, increase over control” value ([1]; GA on days 20-25 (suppression))?
**A.** 7.8 fold

**Q.** And the “DCX expression in the RMS, increase over EAE mice” value ([1]; GA on days 20-25 (suppression))?
**A.** 1.6 fold

**Q.** And the “DCX expression in the RMS, increase over control” value ([1]; GA on days 20-25 (suppression))?
**A.** 2.6 fold

**Q.** What about the “mobilization of progenitors into the RMS” value ([1]; injection of GA alone (no EAE)) of the same substance?
**A.** enhanced mobilization of progenitors into the RMS, but to a lower extent

**Q.** What about the “increase of new neurons in the cortex over EAE mice” value ([1]; one month after completion of GA treatment) of the same substance?
**A.** 2.6 fold

**Q.** What about the “DCX expression in the SVZ, elevation over EAE and control” value ([1]; prevention treatment) of the same substance?
**A.** 4 fold

**Q.** And the “MAC-1 expression (microglial activation)” value ([2]; EAE+GA vs EAE mice)?
**A.** significantly reduced

**Q.** And the “neuronal damage in brain” value ([2]; EAE+GA vs EAE mice, prevention or suppression treatment)?
**A.** considerably less damage

**Q.** And the “neuronal malformations or perivascular infiltrations” value ([2]; mouse, in vivo)?
**A.** did not find neuronal malformations or perivascular infiltrations

**Q.** What about the “number of Aβ plaques” value ([3]; GA (TV-5010) vaccinated vs untreated Tg mice, 6 weeks later) of the same substance?
**A.** significantly fewer plaques

**Q.** And the “BrdU+ cells in the dentate gyrus” value [3, 7]?
**A.** significantly more BrdU^+ cells

**Q.** And the “CD11b+ microglia” value [3, 7]?
**A.** significantly fewer CD11b^+ microglia

**Q.** What about the “area occupied by the plaques” value [3, 7] of the same substance?
**A.** significantly smaller

**Q.** What about the “staining for NeuN” value [3, 7] of the same substance?
**A.** significantly more intense staining for NeuN

**Q.** And the “MHC-II expression by microglia” value ([3]; GA-vaccinated Tg mice)?
**A.** most of the microglia adjacent to residual Aβ^+ plaques expressed MHC-II

**Q.** What about the “DCX+ cells in the DG” value ([3]; relative to non-Tg littermates) of the same substance?
**A.** slightly but significantly more

**Q.** What about the “clinical manifestations of EAE” value [4] of the same substance?
**A.** ameliorated the clinical manifestations of EAE regardless of the stage in which it was administered

**Q.** What about the “MWM performance (spatial learning/memory)” value [5] of the same substance?
**A.** superior to that of the untreated Tg mice

Source: patent US20090191173A1, “Induction Of Neurogenesis And Stem Cell Therapy In Combination With Copolymer 1” (priority 2004, published 2009)
